The target of the assay is UPR counterscreen luciferase reporter, luminescence. The assay can be described thus: activators in UPR counterscreen luciferase reporter, dose response, counter-screen for adaptive UPR activator project, cell-based, luminescence (AID 489027). In general terms: Counterscreens check selectivity or assay interference.

Active and inactive are the calls of the source. The rule behind the calls is not given here. Bounds are passed on as bounds.

The EC50 is the concentration that produces a half-maximal response. As for `CC1CCC(C(C)C)C(OC(=O)Cn2c(-c3ccc(Cl)cc3)[n+](C)c3ccccc32)C1` (centres undefined), the EC50 is 13.4 µM.

Take `COc1ccc(-c2cc(-c3ccccc3)c(C#N)c(S(C)(=O)=O)n2)cc1`: the EC50 was 5.05 µM.

For the molecule `COc1ccc(-c2nn(C)c(=O)c3ccccc23)cc1NC(=O)Cn1nc(C)c2ccccc2c1=O`, the EC50 is > 80 µM (inactive).

Take `CCC(=O)Nc1ccc(NC(=O)CSc2nc3cc4c(cc3cc2C)CCC4)cc1`: the EC50 was > 80 µM (inactive).

In the case of `COc1ccccc1-c1cc(-c2ccccc2)nc(SC(C(N)=O)c2ccccc2)c1C#N` (centres undefined), the EC50 was > 80 µM (inactive).

Regarding `O=[N+]([O-])c1ccc(Cl)c(-c2ccc(/C=N/c3c(-c4ccco4)nc4ccccn34)o2)c1`, the EC50 result is “inactive”.

Take `O=C(Nc1ccc(O)c(-c2nc3ccccc3s2)c1)c1cc(=O)c2ccccc2o1`: the EC50 was > 80 µM (inactive).

Take `Oc1ccc(Br)cc1/C=N/Nc1ccccn1`: the EC50 is > 80 µM (inactive).

Take `COc1cc(/C=C/c2ccc3cccc(O)c3n2)ccc1O`: the EC50 was 7.62 µM.

Regarding `CCOC(=O)c1cc(-c2ccccc2)sc1NC(=O)c1ccc(OC)cc1`, the EC50 result is “inactive”.

Turning to `CCOC(=O)c1c(-c2ccc(C)o2)csc1NC(=O)COC(=O)c1ccc(NC(N)=O)cc1`, the EC50 was > 80 µM (inactive).

`N#Cc1c(-c2ccc3c(c2)OCO3)ccn2nc(-c3cccc(C(F)(F)F)c3)nc12`: the EC50 result is “inactive”.

Regarding `CCOC(=S)SCC(=O)Nc1nc(-c2ccc(Br)cc2)cs1`, the EC50 was 13 µM.

`c1cc(SC2CCCCC2)cc(-c2nc3cnccn3c2NC2CCCCC2)c1`: the EC50 was 12.6 µM.

In the case of `Cc1ccc(C(=O)Nc2cc(S(=O)(=O)N3CCOCC3)ccc2N2CCCC2)cc1`, the EC50 result is “inactive”.

As for `CN(C)S(=O)(=O)c1ccc(N2CCCC2)c(C(=O)Nc2nc3ccccc3s2)c1`, the EC50 is 12.7 µM.

On to `COc1ccccc1-c1sc2cc3c(cc2c1-c1ccc(OCCN2CCCCC2)cc1)OCO3`, for which the 50% effective concentration (EC50) is 17.7 µM.

Turning to `COc1ccc(Cn2c(SCc3ccccc3C)nc3cc(OC)c(OC)cc3c2=N)cc1`, the EC50 was 9.65 µM.

Regarding `CCCCCCCCCCn1c2c(c(=N)c3c1CCC3)CCC2`, the EC50 is 13.5 µM.

Turning to `COc1ccc(CNC(=O)/C(C#N)=C/c2cccc(OC)c2OC)cc1`, the EC50 entry is “inactive”.

Take `CCC(C)(C)C1CCC2(CC1)NC(=O)N(CC(=O)N1CCN(S(=O)(=O)c3cc(C)ccc3C)CC1)C2=O` (centres undefined): the EC50 was 19.3 µM.

Turning to `Cc1ccc(C(=O)C(C(=O)/C=C/c2ccccc2)=C2SCCCS2)cc1`, the EC50 was 11.9 µM.

With `Cc1ccc(-c2nn(CC(=O)NCc3cc(-c4nn(C)c(=O)c5ccccc45)ccc3C)c(=O)c3ccccc23)cc1`, the EC50 was 13.1 µM.

Turning to `Oc1cccc(-c2nc3c4c(ncn3n2)-c2ccccc2CC42CCCC2)c1`, the EC50 was 18.6 µM.

Turning to `CCc1cccc(CC)c1NC(=O)/C(C#N)=C/c1ccccc1C(F)(F)F`, the EC50 was > 80 µM (inactive).

For the molecule `O=C(NCCC1=CCCCC1)C(=O)NCC(c1ccco1)N1CCN(c2ccc(F)cc2)CC1` (centres undefined), the EC50 is > 80 µM (inactive).

Consider `COc1ccc(S(=O)(=O)N2c3cc(Cl)ccc3Oc3nc4ccccc4nc32)cc1`, for which the EC50 is > 80 µM (inactive).

In the case of `COc1ccc2cc(C)c3nnc(SCC(=O)Nc4nc(-c5ccc(F)cc5)cs4)n3c2c1`, the EC50 was 13 µM.

`Cc1cc(NC(=O)c2cncc(Br)c2)ccc1NC(=O)c1cc2ccccc2o1`: the EC50 is > 80 µM (inactive).

As to `COc1cc(NC(=O)c2cccs2)ccc1NC(=O)c1cc2ccccc2o1`, the EC50 is > 80 µM (inactive).

As to `COc1ccc(OCc2n(CC(=O)OC3CC(C)CCC3C(C)C)c3ccccc3[n+]2C)cc1` (centres undefined), the EC50 is > 80 µM (inactive).

In the case of `COc1ccc(/C=N/Nc2cc(C)nc3ccc(Br)cc23)cc1`, the EC50 is 9.88 µM.

Regarding `O=[N+]([O-])c1cc(-c2ccc(/C=N/c3nc4ccccn4c3-c3ccco3)o2)ccc1Cl`, the EC50 was > 80 µM (inactive).

Consider `CCc1ccccc1NC(=O)C(CC)Sc1nc2cc3c(cc2c(=O)n1Cc1ccco1)OCO3` (centres undefined), for which the EC50 was 11.6 µM.

For `NC1=NC[C@@H](CC2CCCCC2)N1CCc1cc(C(F)(F)F)cc(C(F)(F)F)c1`, the EC50 is > 80 µM (inactive).

With `CCCCCCCCCn1c2c(c(=N)c3c1CCC3)CCCC2`, the EC50 is 9 µM.

`O=C(NCCc1ccc(O)c(O)c1)C1COc2ccccc2O1` (centres undefined): the EC50 was 16.8 µM.

With `COc1ccc2oc(-c3ccc(C)c(NC(=O)c4ccc(N5CCOCC5)c([N+](=O)[O-])c4)c3)nc2c1`, the EC50 is > 80 µM (inactive).

As to `CCOC(=O)C1=C(O)/C(=C/c2cn(CC(=O)NCC3CCCO3)c3ccccc23)SC1=Nc1ccc(C)cc1` (centres undefined), the EC50 is > 80 µM (inactive).

For `COc1ccc(-c2ccc3c(c2)S(=O)(=O)c2cccc(C(=O)NCCOc4ccccc4Cl)c2C3=O)cc1OC`, the EC50 was > 80 µM (inactive).

`COc1ccc(C(CCNCc2ccccc2)c2ccc(F)cc2)cc1` (centres undefined): the EC50 was 10.4 µM.

Regarding `COc1cccc(C(=O)Oc2cc3c4c(c2)C(C)=CC(C)(C)N4C(=O)C3=O)c1`, the EC50 was 15.7 µM.

With `O=C(/C=C/c1ccc(Cl)cc1)NC(=S)Nc1ccc(N2CCOCC2)c(Cl)c1`, the EC50 is > 80 µM (inactive).

Turning to `Cc1c(Cl)cccc1Nc1nc(NCCO)c2ccccc2n1`, the EC50 was 17 µM.

As to `CC(C)(C)C(=O)NC(=S)NNC(=O)c1sc2ccccc2c1Cl`, the EC50 is > 80 µM (inactive).

As for `CCNC(=O)c1c(NC(=O)c2cc(-c3cc(C)ccc3O)n[nH]2)sc2c1CCCC2`, the EC50 is > 80 µM (inactive).

For `Cn1nnnc1Sc1ncnc2scc(-c3ccc(Cl)cc3)c12`, the EC50 is 17.1 µM.

`COc1ccc(-c2ccc(C#N)c(SCC(=O)Nc3sc4c(c3C#N)CCC4)n2)cc1OC`: the EC50 was > 80 µM (inactive).

On to `CCOc1ccc(/C=C/C(O)=C2/C(=O)NC3(C)CC2c2ccccc2O3)cc1OC` (centres undefined), for which the EC50 result was “inactive”.

In the case of `CCOc1cc(/C=N/NC(=O)Cn2nc([N+](=O)[O-])cc2C)cc(Br)c1OCc1ccccc1C`, the EC50 is > 80 µM (inactive).

For the molecule `CC1=CC(C)[C@H](/C=N/n2c(=O)[nH]c3c([nH]c4ccc(C)cc43)c2=O)C(C)C1` (some centres undefined), the EC50 result was “inactive”.

For `COc1ccc(-n2c(C)cc(C(=O)CCl)c2C)cc1`, the EC50 is 5.8 µM.

As for `CCOc1ccc(C(=O)Nc2ccc(NC(=O)c3ccco3)c(Cl)c2)cc1Cl`, the EC50 is 8.74 µM.

With `O=C(Nc1ccc(O)c2c(=O)cc(-c3cccc(Cl)c3)oc12)c1cccc(Cl)c1`, the EC50 entry is “inactive”.

With `Cn1ncc(N=Cc2c(O)ccc3ccccc23)c1C(=O)Nc1cccc(Cl)c1`, the EC50 was > 80 µM (inactive).

`CC(C)=CCCC1(C)C=Cc2c(c(C)cc3c2[nH]c2cc(O)ccc23)O1` (centres undefined): the EC50 result is “inactive”.

On to `O=C1Nc2ccccc2/C1=C/c1ccc([N+](=O)[O-])cc1`, for which the EC50 result was “inactive”.

For the molecule `COc1ccc(Nc2nc(N)c([N+](=O)[O-])c(NC3CCCCC3)n2)cc1`, the EC50 is > 80 µM (inactive).

`COc1cc(NC(=O)c2ccc(C)cc2C)ccc1NC(=O)c1cc2ccccc2o1`: the EC50 entry is “inactive”.

Regarding `COc1ccc(C(=O)Nc2cccc(/C=C/c3nc4ccccc4c(=O)[nH]3)c2)cc1`, the EC50 is > 80 µM (inactive).

On to `COC(=O)c1c(NC(=O)CC2Nc3ccccc3NC2=O)sc(C)c1C` (centres undefined), for which the EC50 entry is “inactive”.

Consider `O=C(Nc1ccc(Cl)cc1)Nc1ccccc1Sc1ncc([N+](=O)[O-])s1`, for which the EC50 entry was “inactive”.

As for `CN(C)CCCN(C(=O)c1ccc(S(=O)(=O)N2CCc3ccccc3C2)cc1)c1nc2ccc(F)cc2s1`, the EC50 was 8.2 µM.

As for `CN(C)C(=O)CCc1ccc2c3c([nH]c2c1)[C@]1(CCc2ccccc2)[C@@H](C(=O)N2CCCCC2)C[C@H](CC(=O)NCCC2=CCCCC2)C(=O)N1CC3`, the EC50 entry was “inactive”.

On to `COc1ccc(CCn2c(C3CCCCC3)nc3c(c(=O)c4ccccc4n3C)c2=O)cc1`, for which the EC50 was > 80 µM (inactive).

For the molecule `CC(C)CC(NC(=O)c1ccc(Cl)cc1)C(=O)OCC(=O)c1ccc2c(c1)NC(=O)CO2` (centres undefined), the EC50 was > 80 µM (inactive).

Regarding `O=C1NC(=O)C(=Cc2cn(CCOc3ccc4c(c3)OCO4)c3ccccc23)C(=O)N1`, the EC50 is 18.5 µM.

For the molecule `COc1ccc(-c2nn(-c3ccccc3)cc2/C=C/C(=O)OCC(=O)Nc2cccc(C#N)c2)cc1`, the EC50 is > 80 µM (inactive).

`C=CCOc1ccc(/C=N/N2C(=O)C(CC(=O)Nc3ccc(F)cc3F)SC2=NC)cc1` (centres undefined): the EC50 was > 80 µM (inactive).

For the molecule `N/C(=N\c1nc(CSc2ccccn2)cc(=O)[nH]1)Nc1ccc(Cl)cc1Cl`, the EC50 is > 80 µM (inactive).

In the case of `CCOC(=O)c1c(NC(=O)/C=C/C(=O)O)sc(C)c1-c1ccc(C(C)(C)C)cc1`, the EC50 is > 80 µM (inactive).

Turning to `COc1ccc(Cn2c(SCc3cc(C)ccc3C)nc3cc(OC)c(OC)cc3c2=N)cc1`, the EC50 was > 80 µM (inactive).

Regarding `Cc1ccc(Cn2c(SCC(=O)Nc3cc(C)on3)nc3ccccc3c2=O)cc1`, the EC50 was > 80 µM (inactive).

For `FC(F)(F)c1nnc2c(Sc3ccccc3)nc3ccc(Cl)cc3n12`, the EC50 was 4.29 µM.

With `Cc1nn(Cc2c(Cl)cccc2Cl)c(C)c1NC(=O)c1sc2ccccc2c1Cl`, the EC50 was 18.5 µM.

For `COc1cc(/C=C2\CC(C(C)(C)C)C/C(=C\c3cc(OC)c(OC)c(OC)c3)C2=O)cc(OC)c1OC` (centres undefined), the EC50 is 4 µM.

As for `COc1ccc(N2CCN(Cc3cc(=O)oc4cc(-c5ccccc5)c(O)cc34)CC2)cc1`, the EC50 was > 80 µM (inactive).

In the case of `CCC(=O)Nc1nnc(SCC(=O)c2ccc3c(c2)Cc2ccccc2-3)s1`, the EC50 entry is “inactive”.

Turning to `COc1cc(OC)cc(C(=O)Nc2ccc3nc4n(c(=O)c3c2)CCCCC4)c1`, the EC50 is > 80 µM (inactive).

For `COc1ccc2c(c1)NC(c1cc(Cl)cc(Cl)c1O)c1cccn1-2` (centres undefined), the EC50 result was “inactive”.

As for `Clc1ccc2c(c1)C(N1CCNCC1)Cc1ccccc1S2` (centres undefined), the EC50 is > 80 µM (inactive).

Take `O=CC1=C(c2ccccc2)Oc2ccccc2O1`: the EC50 is 10.3 µM.

`Cc1ccc(Nc2nc3ccc(Cl)cc3n3cnnc23)cc1F`: the EC50 entry was “inactive”.

On to `C[C@@H]1C[C@H]2[C@@H]3CCC4=CC(=O)C=C[C@]4(C)[C@@]3(Cl)[C@@H](O)C[C@]2(C)[C@@]1(OC(=O)c1ccco1)C(=O)CCl`, for which the EC50 is > 80 µM (inactive).
